Here are results for five compounds from US20120171396A1, “Drug suspension agent and method of manufacture thereof” (Beijing Zhongwei Shennong Chronic Desease Medicine Academe …, priority 2009, published 2012).

One test relates to hyperuricemia mice. Put plainly: Pharmacodynamic test of hyperuricemia. The test is classed as in vivo. The method, then:
Kunming male mice, weighing 24±2 g, are randomly divided into several groups, use i, g, once every day for 4 days, wherein the dosages administered to the saline group and the hyperuricemia model blank group are […] every day. IP potassium oxide hydrochloride for every hyperuricemia model blank group at 2 hours before blood sampling, and IP potassium oxide hydrochloride for test model group at 1 hour before the last using. At 2 hours after the last using, sample blood from the venous plexus behind the animal orbit to test the serum uric acid level.

A further test relates to Kunming mice. The test can be described thus: Pharmacodynamic test of the cough-relieving effect (ammonia-induced cough). The test is classed as in vivo. To be noted: 1 hour after administering, control: codeine phosphate 4 mg/kg by gavage, test: hung. The method, then:
60 kunming mice, in half respectively male and female and weighing from 18 g to 20 g, are randomly divided into 5 groups based on the weight, each group comprises 12 rice. […] suspension agent is hung in the test group. Codeine phosphate with a dosage of 4 mg/kg is administered to the control group by gavage.
For the above two groups, at 1 hour after administering, absorb 0.2 ml ammonia (with a concentration of 25%-28%) by 1 ml injector and inject the ammonia into the tampon with the same weight thereof, and then quickly put the injected tampon together with the white rice into an inverse 500 ml beaker, and then record the number of animal coughing within 3 minutes. The obvious decrease of cough frequency is regarded as the index of the antitussive effect.

The subject of a further test is patients with diabetes. The test can be described thus: Clinical curative effect of DHD on diabetes (diabetes kidney disease patients). The test is classed as in vivo, human. Further details: Blood glucose at 2 hours after the meal / Fasting blood glucose (FBG): unit not given here. From the text: 1. The standard of selecting patients: All patients with diabetes are in accordance with WHO diabetes diagnostic criteria. Select 18 cases of urine protein, renal function and two groups with the matching developing speeds of renal function injury within one year from diabetes kidney disease patients (DN). […] Once patients are selected, other drugs related to sugar, fat metabolism are stopped administering, diet control and proper exercise therapy are continued. Test fasting blood glucose and blood glucose at 2 hours after the meal every week. After stabilizing the blood glucose, experimental treatment is performed, the treatment group uses DHD, once every day, four hours every time. […] 3. Results: By statistic treatment, clinical curative effects between the two groups are tested by Ridit, and observation indexes between the two groups and within every group before and after treatment are tested by t-test. Marked: […] Effective: […]

In test [1] the test system is gastric and duodenal ulcer patients. The test can be described thus: Clinical observation of NHD on gastric and duodenal ulcer patients. The test is classed as in vivo, human. The method, then: 1. Case selection: Selected 80 inpatients are in accordance with gastric and duodenal ulcer diagnostic criteria. The inpatients are randomly divided into two groups. […] 2. Method of treatment: […] The course of treatment is one month. After two months, review by gastroscopy. Omeprazole is used in the control group by oral administration once every day, one piece every time (20 mg), the course of treatment is the same. 3. Observation items: ulcer surface (regarding results tested by gastroscope as standard), partial clinical symptoms (such as abdominal pain and acid reflux) 4. Curative effect evaluation standard: referring to Chinese national diagnostic curative effect standard.

The test system of test [2] is male Prostatic hyperplasia patients. The test can be described thus: Clinical curative effects of PHD on male Prostatic hyperplasia. The test is classed as in vivo, human. From the text: Case selection: 72 patients, male, wherein 53 cases with the age of 60-69 years old, 16 cases with the age of 70-79 years old, 3 cases with the age of 80-89 years old. The longest course of disease is 11 years, the shortest is 3 months. There are 6 cases with the course of disease smaller than one year, 48 cases with the course of disease in the range of 1-4 years, 14 cases with the course of disease in the range of 5-10 years, 4 cases with the course of disease bigger than 10 years. There are 12 cases with prostate enlargement I-degree, 44 cases with prostate enlargement II-degree, and 16 cases with prostate enlargement III-degree. There are 4 cases integrated with bladder stones, and 6 cases with urinary infection.
Observation method: based on the ages of patients, course of disease and state of illness, patients are divided into two groups.
(1) The control group comprises 36 patients, administered with finasteride tablet, one every time, one time every day, oral administration.
(2) The treatment group comprises 36 patients, administered with PHD, four hours every time, one time every day, hanging.
Observe patients' symptoms before and after administration which mainly includes frequent urination at night, difficult urinating, urination becoming thinner, drop after urination, micturition pain, and urgent urination. No, light, medium, heavy symptoms are scored 0, 1, 2, 3 respectively. Observe integral changes before and after treatment. Rectal touch and B ultra examination are made to observe the recovery condition of prostate enlargement.
Based on the ratio of the integral difference of local symptom before administration to that after administration and the condition of prostate recovery, curative effects are evaluated. If healing, the integral ratio is 1, and prostate enlargement is back to normal. […] If effective, the integral ratio is in the range of ⅔ to ⅓, and prostate enlargement is improved. If invalid, the integral ration is smaller than ⅓, and prostate enlargement has no change.

[3] abbreviates: 12 weeks, DHD versus Gliquidone.
Setting [4] is: of healed cases (14 NHD, 6 Omeprazole), time unit not given.
Where [5] appears, read: treat group 50 cases NHD, control group 30 cases Omeprazole 20 mg oral.
[6] abbreviates: 36 cases per group, PHD versus finasteride tablet.

As to `Oc1ncnc2[nH]ncc12` [Allopurinol], the “Serum uric acid level of mice (mg/100 ml)” value in the test on hyperuricemia mice (hyperuricemia mice, 2 hours after the last using, 4 days, Allopurinol dosage 10) came to 7.46 ± 0.17 mg/100 ml. For the same compound, the “effect on serum uric acid level of normal mice” value with hyperuricemia mice (normal mice, in words) is given as “can reduce the serum uric acid level of normal mice”.

On to `COc1ccc2c3c1O[C@H]1[C@@H](O)C=C[C@H]4[C@@H](C2)N(C)CC[C@@]341` [Codeine phosphate], for which the inhibition at 4 mg/kg in the test on Kunming mice (Mus musculus, po, read-out: Cough inhibition Rate (%)) was 67.3%. For the same compound, the “Cough Frequency” value in the test on Kunming mice (number of coughing within 3 minutes) is given as 11.2 ± 4.8.

`COc1ccc2c(c1)C(=O)N(CCc1ccc(S(=O)(=O)NC(=O)NC3CCCCC3)cc1)C(=O)C2(C)C` [Gliquidone]: in the test with patients with diabetes (setting [3]), the “Blood glucose at 2 hours after the meal: Effective (cases)” value was found to be 6, the “Blood glucose at 2 hours after the meal: Invalid (cases)” value is on record as 0, the “Blood glucose at 2 hours after the meal: Marked (cases)” value came to 4 and the “Blood glucose at 2 hours after the meal: Total efficient rate” value is recorded as 100.0. In the test on patients with diabetes (setting [3]), the “Fasting blood glucose (FBG): Effective (cases)” value came to 6, the “Fasting blood glucose (FBG): Invalid (cases)” value was found to be 1 and the “Fasting blood glucose (FBG): Total efficient rate” value came to 90.0. Further, the “Fasting blood glucose (FBG): Marked (cases)” value in the test on patients with diabetes (12 weeks, treatment group DHD four hours/day, control group Gliquidone 30 mg increased to 90 mg) was found to be 3. Further, in the test on patients with diabetes (After treating 2 weeks), the “Blood glucose at 2 hours after the meal” value is listed as 17.48 and the “Fasting blood glucose (FBG)” value is 9.99. Moreover, in the test with patients with diabetes (After treating 4 weeks), the “Blood glucose at 2 hours after the meal” value is on record as 12.77 and the “Fasting blood glucose (FBG)” value is 9.27. Besides, in the test on patients with diabetes (After treating 8 weeks), the “Blood glucose at 2 hours after the meal” value was 10.07 and the “Fasting blood glucose (FBG)” value is reported as 8.43. Besides, in the test on patients with diabetes (After treating (12 weeks)), the “BUN” value turned out to be 9.2 ± 0.6 mmol/L, the “Blood glucose at 2 hours after the meal” value is 9.21, the “Fasting blood glucose (FBG)” value was determined as 7.62 and the “Scr” value worked out at 250.9 ± 49.3 µmol/L. The compound also returned a Urine protein in the test on patients with diabetes (After treating (12 weeks)) of 6.0 ± 2.7. Further, in the test on patients with diabetes (Before treating), the “BUN” value stood at 9.5 ± 0.7 mmol/L, the “Blood glucose at 2 hours after the meal” value is 14.79, the “Fasting blood glucose (FBG)” value was determined as 10.72 and the “Scr” value worked out at 251.3 ± 54.6 µmol/L. Also, the Urine protein in the test on patients with diabetes (Before treating) is reported as 6.2 ± 2.5.

For `COc1ccc2[nH]c([S+]([O-])Cc3ncc(C)c(OC)c3C)nc2c1` (centres unmarked) [Omeprazole], in test [1] (setting [4]), the “needed time for curing diseases: cases healed at course of treatment 6” value is listed as 0, the “needed time for curing diseases: cases healed at course of treatment 7” value was found to be 0, the “needed time for curing diseases: cases healed at course of treatment 8” value is 2 and the “needed time for curing diseases: cases healed at course of treatment 9” value amounted to 4. In test [1] (treat group 50 cases NHD hung 5 hours/day, control group 30 cases Omeprazole 20 mg oral once daily), the “Healing (cases)” value amounted to 6. Moreover, in test [1] (setting [5]), the “Invalid effect (cases)” value is given as 5, the “Marked effect (cases)” value is 6, the “Total efficient rate (%)” value stood at 83.3% and the “Turning better (cases)” value was 13.

As to `CC(C)(C)NC(=O)[C@H]1CC[C@H]2[C@@H]3CC[C@H]4NC(=O)C=C[C@]4(C)[C@H]3CC[C@]12C` [finasteride tablet, finasteride], in test [2] (setting [6]), the “Effective (cases)” value is reported as 6, the “Invalid (cases)” value was 16, the “Marked (cases)” value worked out at 10 and the Total efficient rate was determined as 52.78%. Further, the total effective cases in test [2] (setting [6]) came out at 26 cases. Further, in test [2] (36 cases per group, treatment PHD hung four hours daily, control finasteride tablet oral once daily), the “Healing (cases)” value is recorded as 4. Besides, the “Integral values of local symptoms before and after administration” value in test [2] (in words, control P>0.05, treatment P<0.001) is on record as “significant differences”.

What is called inhibition is the percentage by which the read-out fell short of the control.
